Test [1] deals with T1, BrGH3A.
T1 construct: C-FnIII-N domain order is natural
Nature of the test: glucose release, glucose oxidase/ABTS. In kind it is biochemical, metagenome: bovine ruminal fluid. The conditions noted are these: 0.1 M sodium citrate, pH 5.0, 40°C, 5 min. An excerpt:
glucose release, glucose oxidase/ABTS on BrGH3A

In test [2] the test system is T1, BrGH3A. In words: p-nitrophenol release, absorbance […] nm. In kind it is biochemical, metagenome: bovine ruminal fluid. To be noted: 0.1 M sodium citrate, pH 5.0, 40°C, 5 min.
[3] abbreviates: released glucose divided by two.

Take `OC[C@H]1O[C@@H](O[C@H]2[C@H](O)[C@@H](CO)OC(O)[C@@H]2O)[C@H](O)[C@@H](O)[C@@H]1O` (some centres unmarked) [Laminaribiose]: the Michaelis-Menten constant (Km) (usually the concentration of substrate that gives half-maximal velocity) in test [1] (setting [3]) was 14.3 ± 1.3 mM. Regarding `O=[N+]([O-])c1ccc(O[C@@H]2O[C@H](CO)[C@H](O)[C@H](O)[C@H]2O)cc1` [pNP-Gal, p-nitrophenyl-β-D-galactopyranoside], the Km in test [2] worked out at 7.55 ± 0.9 mM. Regarding `O=[N+]([O-])c1ccc(O[C@@H]2OC[C@@H](O)[C@H](O)[C@H]2O)cc1` [pNP-Xyl, p-nitrophenyl-β-D-xylopyranoside], the Km in test [2] is 2.12 ± 0.1 mM. Consider `OC[C@H]1O[C@@H](O[C@@H]2[C@@H](O)[C@H](O[C@H]3[C@H](O)[C@@H](CO)OC(O)[C@@H]3O)O[C@H](CO)[C@H]2O)[C@H](O)[C@@H](O)[C@@H]1O` (some centres unmarked) [Laminaritriose], for which the Km in test [1] (calculated as total released glucose) is 5.4 ± 0.42 mM. As to `O=[N+]([O-])c1ccc(O[C@@H]2O[C@H](CO)[C@@H](O)[C@H](O)[C@H]2O)cc1` [pNP-Glc, p-nitrophenyl-β-D-glucopyranoside], the Michaelis-Menten constant (Km) in test [2] amounted to 0.6 ± 0.04 mM. As to `O=[N+]([O-])c1ccc(O[C@@H]2OC[C@H](O)[C@H](O)[C@H]2O)cc1` [pNP-Ara, p-nitrophenyl-α-L-arabinopyranoside], in test [2], the Michaelis constant (Km) was found to be 9.95 ± 1.16 mM.

`OC[C@H]1O[C@@H](O[C@H]2[C@H](O)[C@@H](O)C(O)O[C@@H]2CO)[C@H](O)[C@@H](O)[C@@H]1O` (some centres unmarked) [Cellobiose]: in test [1] (setting [3]), the Km came out at 30 ± 3.9 mM. As for `C[C@H]1O[C@@H](Oc2ccc([N+](=O)[O-])cc2)[C@H](O)[C@@H](O)[C@H]1O` [pNP-Fuc, p-nitrophenyl-β-D-fucopyranoside], the Km in test [2] was 7.96 ± 0.64 mM.

Source of the values: paper PMC11233000, “Characterization of BrGH3A, a bovine rumen-derived glycoside hydrolase family 3 β-glucosidase with a permuted domain arrangement” (PLOS ONE, 2024).
